From article PMC11530130, “Peripherally restricted PICK1 inhibitor mPD5 ameliorates pain behaviors in murine inflammatory and neuropathic pain models” (JCI Insight, 2024)
“And” between values parts separate entries of the source, which are not always exact repeats. Equal values may be shown once.

Experiments:
naive mice = assay: Male fertility test; type: in vivo, mouse; design: Male fertility test, individual values (Fig 6E) / male fertility test, BB value (Fig S8C) / male fertility test, AB value (Fig S8C): unit not given here
Source text: Mice were 10 weeks old at the beginning of the experiment and acclimatized to the animal facility for two weeks after arrival. Male mice were randomized into two groups (n = 8/group) and weighed and injected s.c. once daily (between 3 pm and 4 pm) for 14 days with sterile PBS or 10 μmol/kg mPD5 (diluted in sterile PBS and pH adjusted to 7.4). After 14 days of dosing, the males were paired with female mice in fresh cages, and the number of pubs counted for 35 days (males were removed from the breeding cages after 14 days). Following the 14 days mating period, males were sacrificed by cervical dislocation caudae epidymidis were removed and weighed. Caudae epidymidis were cut into smaller pieces in 2 mL PBS (37 °C) and incubated (37 °C, 5% CO2) for 15 min. Following incubation, the mix was swirled gently, and 0.5 mL of the liquid was transferred to room tempered PBS to achieve a final volume of 1 mL.
Subsequently, sperm count was determined by transferring 50 µL of the sample to a hemocytometer, and each sample was determined in duplicate by an experimenter blinded to drug treatment. Following criteria were assessed: mobility (forward and circular), local tail mobility and total number. Females were weighed on a regular basis from removal of the males […]
Unless otherwise stated, all data were analysed using GraphPad Prism 9.4.1. and presented as mean +-SEM with the significance level set to p < 0.05. For locomotion and elevated plus maze, Ethovision XT 13 (Noldus) was used to track the distance travelled by each animal. For within group analysis (i.e., von Frey experiments), two-way ANOVA followed by Dunnett’s post hoc test was used. For between group analysis of multiple time points (i.e., locomotion experiments), two-way ANOVA was used without post hoc test due to lack of treatment significance in the ANOVA test. For the limb use experiment, data pre versus post treatment was analysed with a Kruskal Wallis test due to the non-parametric nature of the data. When analysing histograms of three groups or more (i.e., marble burying and elevated plus maze),

[1] = Solubility in PBS by visual inspection
Protocol: SUPPORTING INFORMATION: Method Section.
Sex as a biological variable.
All peptides were ordered from WuXI AppTec (Shanghai, China) or TAG-Copenhagen […]
Assessment of solubility and stability of mPD5.
Solubility was determined by visual inspection of samples dissolved in increasing concentration in 10 mM PBS as judged by full transparency and monophasic appearance.
Stability was addressed by […] for four concentrations (2, 20, 50, and 200 µM), by leaving mPD5 in PBS at 5 °C and 25 °C for 30 days followed by HPLC-UV-MS.
Protein expression and purification.
Full length rat PICK1 (pET41) was, as described earlier (1), expressed in BL21-DE3-pLysS and grown at 37 °C, induced at OD600= 0.6 with 1 mM IPTG, and grown for 16 hours at 20 °C.
Cultures were harvested and re-suspended in 50 mM Tris, 125 mM NaCl, 2 mM DTT (Sigma), 1% Triton X-100 (Sigma), 20 µg/mL DNAse 1 and half a tablet of cOmplete protease inhibitor cocktail (Roche) pr. 1 L culture. The resuspended pellets were frozen at -80 °C for later purification. […] PICK1 was eluted on ice and concentration was measured on a NanoDrop 3000.
Fluorescence polarization binding. […]
binding surface 96 well plates (Sigma-Aldrich, Ref. no. 3686). The plates were incubated 20 min on ice and the fluorescence polarization was measured on an Omega POLARstar plate reader (BMG LABTECH) using excitation filter of 485 nm and long pass emission filter of 520 nm. […]

[2] = males s.c. 10 μmol/kg, once daily for 14 days
[3] = s.c. 10 μmol/kg, once daily for 14 days

## CCCCCCCCCCCCCC(=O)N(CCOCCOCCC(=O)N[C@@H](Cc1c[nH]cn1)C(=O)N[C@@H](Cc1c[nH]c2ccccc12)C(=O)N[C@@H](CC(C)C)C(=O)N[C@@H](CCCCN)C(=O)N[C@H](C(=O)O)C(C)C)CCOCCOCCC(=O)N[C@@H](Cc1c[nH]cn1)C(=O)N[C@@H](Cc1c[nH]c2ccccc12)C(=O)N[C@@H](CC(C)C)C(=O)N[C@@H](CCCCN)C(=O)N[C@H](C(=O)O)C(C)C [mPD5, myristoyl-NPEG4-(HWLKV)2]
Naive mice; AB, individual animals
  male fertility test, AB value (Fig S8C): 28 (3×) and 27 and 26 and 28.5 and 29
Naive mice; BB, individual animals
  male fertility test, BB value (Fig S8C): 41.5 and 43 and 45 (2×) and 41 (2×) and 44
Naive mice; Day 19
  male fertility test, cumulative value by day (Fig S8B): 0
Naive mice; Day 20
  male fertility test, cumulative value by day (Fig S8B): 17
Naive mice; Day 21
  male fertility test, cumulative value by day (Fig S8B): 27
Naive mice; Day 22
  male fertility test, cumulative value by day (Fig S8B): 56
Naive mice; Day 23
  male fertility test, cumulative value by day (Fig S8B): 64
Naive mice; Day 24
  male fertility test, cumulative value by day (Fig S8B): 64
Naive mice; Day 25
  male fertility test, cumulative value by day (Fig S8B): 64
Naive mice; Day 26
  male fertility test, cumulative value by day (Fig S8B): 64
Naive mice; Day 27
  male fertility test, cumulative value by day (Fig S8B): 64
Naive mice; Day 28
  male fertility test, cumulative value by day (Fig S8B): 64
Naive mice; Day29
  male fertility test, cumulative value by day (Fig S8B): 64
Naive mice; Day 30
  male fertility test, cumulative value by day (Fig S8B): 64
Naive mice; Day 31
  male fertility test, cumulative value by day (Fig S8B): 64
Naive mice; Day 32
  male fertility test, cumulative value by day (Fig S8B): 64
Naive mice; Day 33
  male fertility test, cumulative value by day (Fig S8B): 64
Naive mice; Day 34
  male fertility test, cumulative value by day (Fig S8B): 64
Naive mice; Day 35
  male fertility test, cumulative value by day (Fig S8B): 64
Naive mice; [2]
  body weight drop per pup following birth: the same for both groups
  number of pups per litter vs vehicle: same between groups
  weight gain of females mated with treated male mice: significantly higher
Naive mice; naive mice
  Male fertility test, individual values (Fig 6E): 8 and 9 and 10
Naive mice; [3]
  sperm count of the males vs vehicle: same between groups
  sperm count, individual mice: 15062500 and 13125000 and 14250000 and 7750000 and 16000000 and 10750000
[1]
  solubility: ≥ 250000 µg/mL and ~130000 µM
